Measurements taken from DBAASP.
Converted amounts (≈) assume the structure as drawn. “And” between values parts separate entries of the source, which are not always exact repeats. Equal entries are not always repeated. Values belong to the compound of their own block, whether it stands above or below them.

What was measured:
Experiment in all cases: ≥ marks a high value that may be exact or a test limit, other limits are often not marked, values filed in µg/mL are converted to µM
Escherichia coli BL21 = tested on: Escherichia coli BL21
[1] = tested on: Pseudomonas aeruginosa PAO1
[2] = tested on: Streptococcus pyogenes M1T1 5448
[3] = tested on: Pseudomonas aeruginosa H1001
[4] = tested on: Acinetobacter baumannii ATCC 17978
[5] = tested on: Escherichia coli ATCC 8739
[6] = tested on: Staphylococcus aureus HNCMO 112011
[7] = tested on: Batrachochytrium dendrobatidis
[8] = tested on: Escherichia coli ATCC 25726
[9] = tested on: Staphylococcus aureus ATCC 25923
[10] = tested on: Staphylococcus aureus NCTC 8325
[11] = tested on: Escherichia coli DSM 1103
[12] = tested on: Pseudomonas aeruginosa DSM 1117
[13] = tested on: Staphylococcus aureus DSM 1104
[14] = tested on: Staphylococcus epidermidis DSM 1798
[15] = tested on: Escherichia coli ATCC 25922

Compound: CC[C@H](C)[C@H](NC(=O)[C@H](CCCCN)NC(=O)[C@H](C)NC(=O)[C@H](CCCN=C(N)N)NC(=O)[C@H](CCCCN)NC(=O)CNC(=O)[C@H](CCCCN)NC(=O)[C@H](CCC(=O)O)NC(=O)[C@H](CCC(N)=O)NC(=O)[C@@H](NC(=O)[C@@H](NC(=O)[C@H](CCCCN)NC(=O)[C@H](CCCCN)NC(=O)[C@H](CC(C)C)NC(=O)[C@H](Cc1ccccc1)NC(=O)[C@H](CCC(N)=O)NC(=O)[C@H](CCCN=C(N)N)NC(=O)[C@@H](NC(=O)[C@@H](NC(=O)[C@H](CCC(=O)O)NC(=O)[C@H](CCCCN)NC(=O)CNC(=O)[C@H](C)N)[C@@H](C)O)[C@@H](C)CC)[C@@H](C)O)[C@@H](C)CC)C(=O)N[C@@H](Cc1c[nH]c2ccccc12)C(=O)N[C@@H](Cc1c[nH]c2ccccc12)C(=O)O [AGKETIRQFLKKTIQEKGKRAKIWW]
MIC (Escherichia coli BL21): 2 µM (≈ 6.09 µg/mL) | MIC [1]: 32 µM (≈ 97.4 µg/mL) | MIC [2]: 0.125 µM (≈ 0.381 µg/mL)

Compound: CC(C)C[C@H](NC(=O)[C@H](CCCCN)NC(=O)[C@H](CCC(N)=O)NC(=O)[C@H](CC(N)=O)NC(=O)[C@H](CC(C)C)NC(=O)[C@H](CC(=O)O)NC(=O)[C@H](CCC(=O)O)NC(=O)[C@@H]1CCCN1C(=O)[C@@H](NC(=O)[C@H](C)NC(=O)CN)[C@@H](C)O)C(=O)N[C@@H](CO)C(N)=O [GATPEDLNQKLS]
MIC [3]: ≥ 196 µM

Compound: CC[C@H](C)[C@H](NC(=O)[C@H](Cc1ccccc1)NC(=O)[C@H](C)NC(=O)[C@H](CCCCN)NC(=O)[C@H](CCCCN)NC(=O)CNC(=O)[C@H](CCCN=C(N)N)NC(=O)[C@H](CCCCN)NC(=O)[C@H](CCCN=C(N)N)NC(=O)[C@H](CC(C)C)NC(=O)[C@H](CCC(=O)O)NC(=O)[C@H](CCC(=O)O)NC(=O)[C@H](CC(C)C)NC(=O)[C@H](CC(C)C)NC(=O)[C@H](Cc1ccc(O)cc1)NC(=O)[C@H](CCCCN)NC(=O)[C@@H](NC(=O)[C@H](CC(C)C)NC(=O)[C@H](C)NC(=O)[C@H](CCC(N)=O)NC(=O)[C@H](CCCN=C(N)N)NC(=O)CNC(=O)[C@H](C)N)[C@@H](C)O)C(=O)N[C@@H](Cc1c[nH]c2ccccc12)C(=O)N[C@@H](Cc1c[nH]c2ccccc12)C(=O)O [AGRQALTKYLLEELRKRGKKAFIWW]
MIC (Escherichia coli BL21): 4 µM (≈ 12.3 µg/mL) | MIC [1]: > 128 µM | MIC [2]: 2 µM (≈ 6.13 µg/mL)

Compound: CC[C@H](C)[C@H](NC(=O)[C@H](Cc1c[nH]c2ccccc12)NC(=O)[C@H](CCC(N)=O)NC(=O)[C@H](CCCN=C(N)N)NC(=O)CNC(=O)[C@H](C)N)C(=O)N[C@@H](CCCCN)C(=O)N[C@@H](C)C(=O)N[C@@H](Cc1ccc(O)cc1)C(=O)N[C@@H](CC(C)C)C(=O)N[C@@H](CCCN=C(N)N)C(=O)N[C@@H](CCCN=C(N)N)C(=O)N[C@@H](CCC(=O)O)C(=O)N[C@H](C(=O)N[C@@H](CCCN=C(N)N)C(=O)N[C@@H](CCCCN)C(=O)N[C@@H](CCCN=C(N)N)C(=O)NCC(=O)N[C@@H](CCCN=C(N)N)C(=O)N[C@@H](CCCCN)C(=O)N[C@@H](C)C(=O)N[C@H](C(=O)N[C@H](C(=O)N[C@@H](C)C(=O)N[C@@H](Cc1c[nH]c2ccccc12)C(=O)O)[C@@H](C)CC)C(C)C)[C@@H](C)CC [AGRQWIKAYLRREIRKRGRKAVIAW]
MIC (Escherichia coli BL21): 2 µM (≈ 6.17 µg/mL) | MIC [1]: 16 µM (≈ 49.3 µg/mL) | MIC [2]: 2 µM (≈ 6.17 µg/mL)

Compound: CC[C@H](C)[C@H](NC(=O)[C@@H]1CCCN1C(=O)[C@H](CC(C)C)NC(=O)[C@@H](N)Cc1ccccc1)C(=O)N[C@H](C(=O)NCC(=O)N[C@@H](CCCCN)C(=O)N[C@@H](CC(C)C)C(=O)N[C@@H](CC(C)C)C(=O)N[C@@H](CO)C(=O)NCC(=O)N[C@@H](CC(C)C)C(=O)N[C@@H](CC(C)C)C(N)=O)C(C)C [FLPIVGKLLSGLL]
MIC [7]: ≥ 49.6 µM | MIC [8]: ≥ 128 µM | MIC [9]: 8 µM (≈ 11 µg/mL) | MIC [10]: ≥ 110 µM

Compound: CC[C@H](C)[C@H](NC(=O)[C@H](CCCCN)NC(=O)[C@H](CS)NC(=O)[C@H](C)NC(=O)[C@@H](NC(=O)[C@H](CC(C)C)NC(=O)[C@H](CC(N)=O)NC(=O)[C@@H](NC(=O)CNC(=O)[C@H](CC(C)C)NC(=O)[C@H](CCCNC(=N)N)NC(=O)[C@H](C)NC(=O)[C@H](CC(C)C)NC(=O)[C@H](CC(=O)O)NC(=O)[C@H](CCCCN)NC(=O)CNC(=O)[C@H](CC(C)C)NC(=O)CNC(=O)[C@H](CCCCN)NC(=O)[C@H](CO)NC(=O)[C@H](C)NC(=O)[C@H](Cc1ccccc1)NC(=O)[C@H](CCCCN)NC(=O)[C@H](C)NC(=O)[C@@H](NC(=O)CNC(=O)[C@H](CCCNC(=N)N)NC(=O)[C@H](Cc1ccccc1)NC(=O)[C@@H](NC(=O)[C@H](CO)NC(=O)[C@H](CO)NC(=O)[C@H](Cc1ccccc1)NC(=O)CN)[C@@H](C)CC)C(C)C)C(C)C)C(C)C)C(=O)N[C@@H](CO)C(=O)N[C@@H](CCCCN)C(=O)N[C@@H](CCC(N)=O)C(=O)N[C@@H](CS)C(=O)O [GFSSIFRGVAKFASKGLGKDLARLGVNLVACKISKQC]
MIC [7]: ≥ 50 µM and 25 µM | MIC [15]: 10 µM (≈ 38.7 µg/mL)

Other lines, results leading:

MIC [3]: ≥ 174 µM
Compound: CC[C@H](C)[C@H](NC(=O)[C@H](C)NC(=O)[C@@H](NC(=O)[C@H](CCCCN)NC(=O)[C@H](CCCCN)NC(=O)[C@H](Cc1cnc[nH]1)NC(=O)[C@@H](NC(=O)[C@@H](N)CCCN=C(N)N)C(C)C)[C@@H](C)CC)C(=O)N[C@@H](CO)C(=O)N[C@H](C(=O)O)C(C)C [RVHKKIAISV]

MIC [4]: 3.1 µM (≈ 10.3 µg/mL) | MIC [5]: 3.1 µM (≈ 10.3 µg/mL) | MIC [6]: 3.1 µM (≈ 10.3 µg/mL)
Compound: CSCC[C@H](NC(=O)[C@H](CCCCN)NC(=O)[C@H](Cc1ccccc1)NC(=O)[C@H](CC(N)=O)NC(=O)[C@H](CC(C)C)NC(=O)[C@@H]1CCCN1C(=O)[C@@H](N)CCCN=C(N)N)C(=O)N[C@@H](CC(C)C)C(=O)N[C@@H](CCCN=C(N)N)C(=O)N[C@@H](Cc1ccccc1)C(=O)N[C@@H](Cc1c[nH]c2ccccc12)C(=O)NCC(=O)N[C@@H](CCC(N)=O)C(=O)N[C@@H](CCC(N)=O)C(=O)N[C@@H](CCC(N)=O)C(=O)N[C@@H](CS)C(=O)N[C@@H](CCCN=C(N)N)C(=O)N[C@@H](CCCN=C(N)N)C(=O)N1CCC[C@H]1C(=O)N[C@@H](CC(C)C)C(=O)N[C@@H](Cc1ccc(O)cc1)C(=O)N[C@@H](CS)C(=O)N[C@@H](CCCN=C(N)N)C(=O)N[C@@H](CCCN=C(N)N)C(=O)N[C@@H](CCCN=C(N)N)C(=O)O [RPLNFKMLRFWGQQQCRRPLYCRRR]

MIC [4]: 3.1 µM (≈ 8.81 µg/mL) | MIC [5]: 3.1 µM (≈ 8.81 µg/mL) | MIC [11]: ≥ 43 µM | MIC [12]: ≥ 86 µM | MIC [13]: ≥ 43 µM | MIC [6]: 3.1 µM (≈ 8.81 µg/mL) | MIC [14]: 5 µM (≈ 14.2 µg/mL)
Compound: CC[C@H](C)[C@H](NC(=O)[C@H](CCCCN)NC(=O)[C@H](CCCCN)NC(=O)[C@H](C)NC(=O)[C@H](CC(C)C)NC(=O)[C@H](C)NC(=O)[C@H](C)NC(=O)[C@H](CC(C)C)NC(=O)[C@H](C)NC(=O)[C@H](CCCCN)NC(=O)[C@H](CC(C)C)NC(=O)[C@H](CC(N)=O)NC(=O)[C@@H](NC(=O)[C@H](CCCCN)NC(=O)CNC(=O)[C@H](CC(C)C)NC(=O)[C@H](CC(C)C)NC(=O)[C@H](Cc1ccc(O)cc1)NC(=O)CNC(=O)[C@H](C)NC(=O)[C@H](CO)NC(=O)[C@H](CC(N)=O)NC(=O)[C@H](CC(C)C)NC(=O)[C@@H](NC(=O)[C@H](Cc1c[nH]c2ccccc12)NC(=O)CN)[C@@H](C)O)[C@@H](C)CC)C(=O)N[C@@H](CC(C)C)C(=O)O [GWTLNSAGYLLGKINLKALAALAKKIL]

MIC [3]: 0.11 µM (≈ 0.27 µg/mL)
Compound: CC[C@H](C)[C@H](NC(=O)[C@H](CCCN=C(N)N)NC(=O)[C@H](CCCN=C(N)N)NC(=O)[C@@H]1CCCN1C(=O)[C@H](CC(C)C)NC(=O)[C@H](CCCN=C(N)N)NC(=O)[C@@H]1CCCN1C(=O)[C@H](CCCN=C(N)N)NC(=O)[C@@H]1CCCN1C(=O)[C@H](CC(C)C)NC(=O)[C@H](Cc1ccc(O)cc1)NC(=O)[C@@H]1CCCN1C(=O)[C@@H]1CCCN1C(=O)[C@H](CCCCN)NC(=O)[C@H](CC(=O)O)NC(=O)[C@@H](N)C(C)C)C(=O)N[C@@H](Cc1ccc(O)cc1)C(=O)N[C@@H](CC(N)=O)C(=O)N[C@@H](CCCN=C(N)N)C(=O)NCC(=O)O [VDKPPYLPRPRLPRRIYNRG]

MIC [4]: 3.1 µM (≈ 8.54 µg/mL) | MIC [5]: 6.3 µM (≈ 17.4 µg/mL) | MIC [6]: 3.1 µM (≈ 8.54 µg/mL)
Compound: CC[C@H](C)[C@H](NC(=O)[C@H](CCCCN)NC(=O)[C@H](CCCCN)NC(=O)[C@H](C)NC(=O)[C@H](CC(C)C)NC(=O)[C@H](C)NC(=O)[C@H](C)NC(=O)[C@H](CC(C)C)NC(=O)[C@H](C)NC(=O)[C@@H](N)CCCCN)C(=O)N[C@@H](CC(C)C)C(=O)N[C@@H](CCC(N)=O)C(=O)N[C@@H](CCC(N)=O)C(=O)N[C@@H](CS)C(=O)N[C@@H](CCCN=C(N)N)C(=O)N[C@@H](CCCN=C(N)N)C(=O)N1CCC[C@H]1C(=O)N[C@@H](CC(C)C)C(=O)N[C@@H](Cc1ccc(O)cc1)C(=O)N[C@@H](CS)C(=O)N[C@@H](CCCN=C(N)N)C(=O)N[C@@H](CCCN=C(N)N)C(=O)N[C@@H](CCCN=C(N)N)C(=O)O [KALAALAKKILQQCRRPLYCRRR]
